pIC50, pKd: −log10 of the molar value. Entries after “also recorded” stand apart in the source; their conditions may differ. Like-named read-outs stand apart in the source and are kept apart here. Where a SMILES comes first, the peptide text is derived from it. [ ]: non-standard residue; d: D form. 12Ado = NCCCCCCCCCCCC(=O)O; Aoc = NCCCCCCCC(=O)O; Ahx = NCCCCCC(=O)O; AEA = NCCOCC(=O)O
Tests used:
[1] = tested on: primary mouse spleen B lymphocytes; assay: Transwell chemotaxis of B cells elicited by MIF; assay type: cell-based; details: 16 nM MIF
Method: Chemotaxis analysis of murine B cells. A Transwell-based assay was used as described previously^34. Briefly, splenic B cells were isolated by negative depletion using a Pan B Cell Isolation Kit (Miltenyi Biotec. Bergisch Gladbach, Germany). Purity of the cells was between 95 and 99%. […] Chemotaxis was followed for 4 h at 37° C. in a humidified atmosphere of 5% CO2. Migrated cells were counted by flow cytometry using CountBright™ Absolute Counting Beads (Molecular Probes-Invitrogen).

MIF = target: T1, MIF (Homo sapiens, UniProt P14174); assay: Fluorescence spectroscopic titration, binding to MIF
T1 construct: made in house
T1 sequence (P14174 2-115): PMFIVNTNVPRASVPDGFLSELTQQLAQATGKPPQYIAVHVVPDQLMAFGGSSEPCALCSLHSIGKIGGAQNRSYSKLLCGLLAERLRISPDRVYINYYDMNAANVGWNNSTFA
Method: (§1) Fluorescence spectroscopy. Fluorescence spectroscopic titrations were performed as described^28, 32. Fluorescence spectra were recorded using a JASCO FP-6500 fluorescence spectrophotometer. […] Apparent KD values (app. KD) were calculated assuming a 1/1 binding model^32.

[2] = tested on: primary human monocyte-derived macrophages; assay: Dil-LDL uptake / foam cell formation, MIF-mediated; assay type: cell-based
Method: Dil-LDL uptake/foam cell formation. […] After washing with imaging solution (MEM without phenol red containing 30 mM HEPES, 0.5 g/L NaHCO3, pH 7.4, and 0.2% BSA), cells were exposed to 50 μg/mL 1,1′-dioctadecyl-3,3,3′3′-tetra-methylindocarbocyanine-labeled LDL (Dil-LDL) for 30 min at 4° C. followed by incubation at 37° C. for 20 min. Cells were washed with ice-cold imaging solution (pH 3.5), fixed, and counter-stained with Hoechst 33258.

CXCL12 = target: T2, CXCL12 (Homo sapiens, UniProt P48061); assay: Fluorescence spectroscopic titration, binding to CXCL12
T2 construct: purchased Peprotech (or a gift of Dr. von Hundelshausen, LMU Munich)
Method: as §1

[3] = Solubility / biophysical properties of next generation mimics
[4] = Estimated solubility index by CD spectroscopy; assay type: physicochemical
Method: Circular dichroism (CD) spectroscopy. […] Far-UV CD measurements were carried out between 195 and 250 nm. The response time was set at 1 s, intervals at 0.1 nm, and bandwidth at 1 nm. All spectra were measured at RT and represent an average of three recorded spectra. Scans were recorded for the ectodomain mimic peptides at a concentration of 1-20 μM in 10 mM sodium phosphate buffer, pH 7.4, containing 1% HFIP, following dilution of freshly made peptide stock solution in HFIP (4° C.) into the buffer-containing cuvette. […] The background spectrum of buffer/1% HFIP alone was subtracted from the spectra of the peptides.

[5] = tested on: human monocyte-derived macrophages; details: read-out: IC50 of MIF-triggered Dil-oxLDL uptake; lower threshold of effect size roughly 50%
human monocytes = assay: 3D migration of monocytes elicited by MIF (time-lapse microscopy); assay type: cell-based
Description: Isolation of human peripheral blood-derived monocytes. Human peripheral blood-derived monocytes were isolated as described^14. Briefly, blood was collected from healthy donors or buffy coat obtained from the blood bank of Munich University Hospital, mixed 1:1 with PBS, and PBMCs isolated by Ficoll-Paque Plus gradient (GE Healthcare). Monocytes were purified by negative depletion using the Monocyte Isolation Kit II (Miltenyi). Monocyte purity was verified by flow cytometry using an anti-CD14 antibody (Miltenyl) and was 95-98%. […] The isolation of PBMCs from donor blood was approved by the local ethics committee of LMU Munich. 3D migration of human peripheral blood-derived monocytes by time-lapse microscopy. The 3D-migration behavior of human monocytes was assessed by time-lapse microscopy and individual cell tracking using the 3D chemotaxis μ-Slide system from Ibidi GmbH (Munich, Germany), adapting the established Ibidi dendritic cell protocol for human monocytes. […] Cell motility was monitored performing time-lapse imaging every 1 min at 37° C. for 2 h using a Leica inverted DMi8-Life Cell Imaging System equipped with a DMC2900 Digital Microscope Camera with CMOS sensor and live cell-imaging software (Leica Microsystems, Wetzlar, Germany). Images were imported as stacks to ImageJ software and analyzed with the manual tracking and chemotaxis/migration tools (Ibidi GmbH).

[6] = read-out: Alexa-488-MIF/ngm app. Kd (±SD), aqueous 1 × b, pH 7.4, 1% HFIP
[7] = Alexa-488-MIF/ngm app. Kd (±SD), aqueous 1 × b, pH 7.4, 1% HFIP
[8] = Fluos-ngm/MIF app. Kd (±SD), aqueous 1 × b, pH 7.4, 1% HFIP

T2 sequence (P48061 22-93): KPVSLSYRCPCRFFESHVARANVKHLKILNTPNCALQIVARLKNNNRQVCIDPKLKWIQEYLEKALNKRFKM

Molecule | pKd (MIF; [6]) | Atherogenic inhibitory activity (Dil-LDL uptake) [2] | binding to CXCL12 (in words) (CXCL12) | solubility properties (in words) [3] | Estimated solubility index by CD spectroscopy [4] | other results
CC[C@H](C)[C@H](NC(=O)[C@H](Cc1ccc(O)cc1)NC(=O)[C@H](CCCNC(=N)N)NC(=O)[C@H](CC(=O)O)NC(=O)CCCCCCCCCCCNC(=O)COCCOCCNC(=O)[C@H](CCCCN)NC(=O)[C@H](CS)NC(=O)[C@H](CC(C)C)NC(=O)[C@H](Cc1ccccc1)NC(=O)[C@H](CC(N)=O)NC(=O)CNC(=O)[C@H](Cc1ccccc1)NC(=O)[C@H](Cc1ccc(O)cc1)NC(=O)[C@H](Cc1c[nH]c2ccccc12)NC(=O)[C@H](CC(N)=O)NC(=O)[C@H](C)NC(=O)[C@@H](NC(=O)[C@H](C)NC(=O)[C@@H](N)CC(=O)O)C(C)C)C(=O)N[C@@H](CS)C(=O)N[C@@H](CC(=O)O)C(=O)N[C@@H](CCCNC(=N)N)C(=O)N[C@@H](Cc1ccccc1)C(=O)N[C@@H](Cc1ccc(O)cc1)C(=O)N1CCC[C@H]1C(=O)N[C@@H](CC(N)=O)C(=O)N[C@@H](CC(=O)O)C(=O)N[C@@H](CC(C)C)C(=O)N[C@@H](Cc1c[nH]c2ccccc12)C(=O)N[C@H](C(N)=O)C(C)C [msR4M-L2] |  |  |  |  |  | inhibition of MIF-mediated B-cell chemotaxis [1]: inhibits MIF-triggered B-lymphocyte chemotaxis; also recorded: fully blocked
CC(C)C[C@H](NC(=O)[C@H](CC(=O)O)NC(=O)[C@H](CC(N)=O)NC(=O)[C@@H]1CCCN1C(=O)[C@H](Cc1ccc(O)cc1)NC(=O)[C@H](Cc1ccccc1)NC(=O)[C@H](CCCNC(=N)N)NC(=O)[C@H](CC(=O)O)NC(=O)CCCCCCCCCCCNC(=O)CCCCCNC(=O)[C@H](CCCCN)NC(=O)[C@H](CS)NC(=O)[C@H](CC(C)C)NC(=O)[C@H](Cc1ccccc1)NC(=O)[C@H](CC(N)=O)NC(=O)CNC(=O)[C@H](Cc1ccccc1)NC(=O)[C@H](Cc1ccc(O)cc1)NC(=O)[C@@H](N)Cc1c[nH]c2ccccc12)C(=O)N[C@@H](Cc1c[nH]c2ccccc12)C(N)=O [msR4M-L3] (H-WYFGNFLCK[Ahx][12Ado]DRFYPNDLW-NH2) | 7.93 | 80% of % of full-length msR4M-L1 | essentially no binding affinity for CXCL12 | less favorable solubility properties |  | pKd (MIF; read-out: Binding affinity (fluorescence spectroscopic titration) Kd, Table 7, reconnected short mimics): 7.85; pKd (MIF; read-out: Fluos-ngm/MIF app. Kd (±SD), aqueous 1 × b, pH 7.4, 1% HFIP): 7.35
CC(C)C[C@H](NC(=O)[C@H](CC(=O)O)NC(=O)[C@H](CC(N)=O)NC(=O)[C@@H]1CCCN1C(=O)[C@H](Cc1ccc(O)cc1)NC(=O)[C@H](Cc1ccccc1)NC(=O)[C@H](CCCNC(=N)N)NC(=O)[C@H](CC(=O)O)NC(=O)CCCCCCCNC(=O)[C@H](CCCCN)NC(=O)[C@H](CS)NC(=O)[C@H](CC(C)C)NC(=O)[C@H](Cc1ccccc1)NC(=O)[C@H](CC(N)=O)NC(=O)CNC(=O)[C@H](Cc1ccccc1)NC(=O)[C@H](Cc1ccc(O)cc1)NC(=O)[C@@H](N)Cc1c[nH]c2ccccc12)C(=O)N[C@@H](Cc1c[nH]c2ccccc12)C(N)=O [msR4M-L4] (H-WYFGNFLCK[Aoc]DRFYPNDLW-NH2) |  | 80% of % of full-length msR4M-L1 | essentially no binding affinity for CXCL12 | less favorable solubility properties |  | pKd (MIF; [7]): 7.36; pKd (MIF; [8]): 7.92
CC(C)C[C@H](NC(=O)[C@H](CC(=O)O)NC(=O)[C@H](CC(N)=O)NC(=O)[C@@H]1CCCN1C(=O)[C@H](Cc1ccc(O)cc1)NC(=O)[C@H](Cc1ccccc1)NC(=O)[C@H](CCCNC(=N)N)NC(=O)[C@H](CC(=O)O)NC(=O)COCCNC(=O)COCCNC(=O)[C@H](CCCCN)NC(=O)[C@H](CS)NC(=O)[C@H](CC(C)C)NC(=O)[C@H](Cc1ccccc1)NC(=O)[C@H](CC(N)=O)NC(=O)CNC(=O)[C@H](Cc1ccccc1)NC(=O)[C@H](Cc1ccc(O)cc1)NC(=O)[C@@H](N)Cc1c[nH]c2ccccc12)C(=O)N[C@@H](Cc1c[nH]c2ccccc12)C(N)=O [msR4M-L5] (H-WYFGNFLCK[AEA][AEA]DRFYPNDLW-NH2) |  | 30% of % of full-length msR4M-L1 | essentially no binding propensity for CXCL12 | favorable biophysical properties such as solubility | >2× compared to × compared to msR4M-L1 | pIC50 [5]: 7.16; pKd (MIF; [7]): 7.38; pKd (MIF; Binding affinity (fluorescence spectroscopic titration) Kd, Table 8, mimics with enhanced solubility): 7.40 to 7.52; pKd (MIF; [8]): 7.84; effect on MIF-triggered 3D monocyte migration (human monocytes): inhibit the MIF-mediated monocytes migration
CC(C)C[C@H](NC(=O)[C@H](CC(=O)O)NC(=O)[C@H](CC(N)=O)NC(=O)[C@@H]1CCCN1C(=O)[C@H](Cc1ccc(O)cc1)NC(=O)[C@H](Cc1ccccc1)NC(=O)[C@H](CCCNC(=N)N)NC(=O)[C@H](CC(=O)O)NC(=O)CNC(=O)CNC(=O)CNC(=O)[C@H](CCCCN)NC(=O)[C@H](CS)NC(=O)[C@H](CC(C)C)NC(=O)[C@H](Cc1ccccc1)NC(=O)[C@H](CC(N)=O)NC(=O)CNC(=O)[C@H](Cc1ccccc1)NC(=O)[C@H](Cc1ccc(O)cc1)NC(=O)[C@@H](N)Cc1c[nH]c2ccccc12)C(=O)N[C@@H](Cc1c[nH]c2ccccc12)C(N)=O [msR4M-LG3] | < 5.30 |  |  |  |  | 
H-WYFGNFLCKDDDDRFYPNDLW-NH2 [msR4M-LD3] | 6.61 |  | essentially no binding propensity for CXCL12 | performing most superior | >2× compared to × compared to msR4M-L1 | pIC50 [5]: 8.85; effect on MIF-triggered 3D monocyte migration (human monocytes): inhibit the MIF-mediated monocytes migration; pIC50 (human monocytes; 3D migration, one experiment, read-out: IC50 of MIF-mediated monocyte migration): 7.74
H-WYFGNFLCKKKKDRFYPNDLW-NH2 [msR4M-LK3] |  |  | good binding affinity for CXCL12 | very good solubility properties |  | 
H-WYFGNFLCKRRRDRFYPNDLW-NH2 [msR4M-LR3] |  |  | good binding affinity for CXCL12 | very good solubility properties | >2× compared to × compared to msR4M-L1 | 

From US20230242616A1, “CHEMOKINE-SELECTIVE CXCR4 ECTODOMAIN-DERIVED (POLY)PEPTIDE” (Ludwig-Maximilians-Universität München, priority 2020, published 2023)
